Reference: US9315500B2, “Bicyclic heteroaryl cycloalkyldiamine derivatives” (NOVARTIS AG, priority 2012, dated 2016)

Molecular target: SYK (SYK(2-635)) (Homo sapiens (Human), UniProt P43405)
Test: SYK enzyme assay (chip based microfluidic mobility shift assay)
Assay type: biochemical
Details: SYK kinase, 4 μM ATP/peptide solution, 30° C., 60 minutes, Caliper mobility shift
Method: A number of compounds of the present invention were assayed in a chip based microfluidic mobility shift assay. All assays were performed in 384 well microtiter plates. Each assay plate contained 8-point serial dilutions for 40 test compounds, as well as four 8-point serial dilutions of staurosporine as reference compound, plus 16 high- and 16 low controls. Liquid handling and incubation steps were done on a Thermo CatX workstation equipped with a Innovadyne Nanodrop Express. Between pipetting steps, tips were cleaned in wash cycles using wash buffer. The assay plates were prepared by addition of 50 nl per well of compound solution in 90% DMSO. The kinase reactions were started by stepwise addition of 4.5 μl per well of peptide/ATP-solution (50 mM HEPES, pH 7.5, 1 mM DTT, 0.02% Tween20, 0.02% BSA, 0.6% DMSO, 10 mM beta-glycerophosphate, and 10 μM sodium orthovanadate, 1 mM MgCl2, 3 mM MnCl2, 4 μM ATP, 4 μM peptide (5-Fluo-Ahx-GAPDYENLQELNKK-Amid) and 4.5 μl per well of enzyme solution (50 mM HEPES, pH 7.5, 1 mM DTT, 0.02% Tween20, 0.02% BSA, 0.6% DMSO, 10 mM beta-glycerophosphate, and 10 μM sodium orthovanadate, 1 mM MgCl2, 3 mM MnCl2, 4 nM SYK (SYK(2-635), produced in-house from insect cells). Kinase reactions were incubated at 30° C. for 60 minutes and subsequently terminated by addition of 16 μl per well of stop solution (100 mM HEPES pH 7.5, 5% DMSO, 0.1% Caliper coating reagent, 10 mM EDTA, and 0.015% Brij35). Plates with terminated kinase reactions were transferred to the Caliper LC3000 workstations for reading. Phosphorylated and unphosphorylated peptides were separated using the Caliper microfluidic mobility shift technology. Briefly, samples from terminated kinase reactions were applied to the chip. Analytes are transported through the chip by constant buffer flow and the migration of the substrate peptide is monitored by the fluorescence signal of its label. Phosphorylated peptide (product) and unphosphorylated peptide (substrate) are separated in an electric field by their charge/mass ratio. Kinase activities were calculated from the amounts of formed phospho-peptide. IC50 values were determined from percent inhibition values at different compound concentrations by non-linear regression analysis.
Test compounds were dissolved in DMSO (10 mM) and transferred into 1.4 mL flat bottom or V-shaped Matrix tubes carrying a unique 2D matrix. The stock solutions were stored at […] if not used immediately. For the test procedure the vials were defrosted and identified by a scanner whereby a working sheet was generated that guided the subsequent working steps.
Compound dilutions were made in 96 well plates. This format enabled the assay of maximally 40 individual test compounds at 8 concentrations (single points) including 4 reference compounds. The dilution protocol included the production of “pre-dilution plates”, “master plates” and “assay plates”.
Pre-dilution plates: 96 polypropylene well plates were used as pre-dilution plates. A total of 4 pre-dilution plates were prepared including 10 test compounds each on the plate positions A1-A10, one standard compound at A11 and one DMSO control at A12. All dilution steps were done on a HamiltonSTAR robot.
Master plates: 30 μL of individual compound dilutions including standard compound and controls of the 4 “pre-dilution plates” were transferred into a 384 “master plate” including the following concentrations 1′810, 362, 72.5, […], 14.5, 2.9, 0.58 and 0.12 μM, respectively in 90% of DMSO.
Assay plates: Identical “assay plates” were then prepared by pipetting 50 nL each of compound dilutions of the “master plates” into 384-well “assay plates” by means of a HummingBird 384-channel dispenser. These plates were used directly for the assay which was performed in a total volume of 9.05 μL. This led to a final compound concentration of 10, 2.0, 0.4, 0.08, 0.016, 0.0032, 0.00064 and 0.000128 μM and a final DMSO concentration of 0.5% in the assay.

SMILES | IC50
Cc1cc2c(Nc3nc(N[C@@H]4CCCC[C@@H]4N)cc4cn[nH]c(=O)c34)cccc2[nH]1 [Example 2.17, 7-((1R,2S)-2-Amino-cyclohexylamino)-5-(2-methyl-1H-indol-4-ylamino)-3H-pyrido[3,4-d]pyridazin-4-one] | 16 nM
N[C@H]1CCCC[C@H]1Nc1cc2cn[nH]c(=O)c2c(Nc2cnc3ccccc3c2)n1 [Example 2.11, 7-((1R,2S)-2-Amino-cyclohexylamino)-5-(quinolin-3-ylamino)-3H-pyrido[3,4-d]pyridazin-4-one] | 5.4 nM
Cc1ccc(Nc2nc(N[C@@H]3CCCC[C@@H]3N)cc3cn[nH]c(=O)c23)c2cccnc12 [Example 2.13, 7-((1R,2S)-2-Amino-cyclohexylamino)-5-(8-methyl-quinolin-5-ylamino)-3H-pyrido[3,4-d]pyridazin-4-one] | 7 nM
N[C@H]1CCCC[C@H]1Nc1cc2cn[nH]c(=O)c2c(Nc2ccc3cccnc3c2)n1 [Example 2.19, 7-((1R,2S)-2-Amino-cyclohexylamino)-5-(quinolin-7-ylamino)-3H-pyrido[3,4-d]pyridazin-4-one] | 42 nM
Cc1ccc2c(Nc3nc(N[C@@H]4CCCC[C@@H]4N)cc4cn[nH]c(=O)c34)cccc2n1 [Example 2.8, 7-((1R,2S)-2-Amino-cyclohexylamino)-5-(2-methyl-quinolin-5-ylamino)-3H-pyrido[3,4-d]pyridazin-4-one] | 2.3 nM
N#Cc1c[nH]c2c(Nc3nc(N[C@@H]4CCCC[C@@H]4N)cc4cn[nH]c(=O)c34)cccc12 [Example 2.14, 7-[7-((1R,2S)-2-Amino-cyclohexylamino)-4-oxo-3,4-dihydro-pyrido[3,4-d]pyridazin-5-ylamino]-1H-indole-3-carbonitrile] | 8 nM
Cc1c[nH]c2c(Nc3nc(N[C@@H]4CCOC[C@@H]4N)cc4cn[nH]c(=O)c34)cc(F)cc12 [Example 3.3, 7-((3R,4R)-3-Amino-tetrahydro-pyran-4-ylamino)-5-(5-fluoro-3-methyl-1H-indol-7-ylamino)-3H-pyrido[3,4-d]pyridazin-4-one] | 2 nM
Cn1cc2c(Nc3nc(N[C@@H]4CCCC[C@@H]4N)cc4cn[nH]c(=O)c34)cccc2n1 [Example 2.3, 7-((1R,2S)-2-Amino-cyclohexylamino)-5-(2-methyl-2H-indazol-4-ylamino)-3H-pyrido[3,4-d]pyridazin-4-one] | 1.1 nM
Cc1c[nH]c2c(Nc3nc(N[C@@H]4CCCC[C@@H]4N)cc4cn[nH]c(=O)c34)cc(F)cc12 [Example 2.4, 7-((1R,2S)-2-Amino-cyclohexylamino)-5-(5-fluoro-3-methyl-1H-indol-7-ylamino)-3H-pyrido[3,4-d]pyridazin-4-one] | 1.3 nM
Cc1ccc(Nc2nc(N[C@@H]3CCCC[C@@H]3N)cc3cn[nH]c(=O)c23)c2cc[nH]c12 [Example 2.15, 7-((1R,2S)-2-Amino-cyclohexylamino)-5-(7-methyl-1H-indol-4-ylamino)-3H-pyrido[3,4-d]pyridazin-4-one] | 9 nM
N[C@H]1CCCC[C@H]1Nc1cc2cn[nH]c(=O)c2c(Nc2cccc3[nH]ncc23)n1 [Example 2.10, 7-((1R,2S)-2-Amino-cyclohexylamino)-5-(1H-indazol-4-ylamino)-3H-pyrido[3,4-d]pyridazin-4-one] | 5.2 nM
N[C@H]1CCCC[C@H]1Nc1nc(Nc2cccc3ncccc23)c2c(=O)[nH]ncc2c1F [Example 1.2, 7-((1R,2S)-2-Amino-cyclohexylamino)-8-fluoro-5-(quinolin-5-ylamino)-3H-pyrido[3,4-d]pyridazin-4-one] | 44 nM
N[C@H]1CCCC[C@H]1Nc1cc2cn[nH]c(=O)c2c(Nc2cccc3cccnc23)n1 [Example 2.20, 7-((1R,2S)-2-Amino-cyclohexylamino)-5-(quinolin-8-ylamino)-3H-pyrido[3,4-d]pyridazin-4-one] | 45 nM
Cc1c[nH]c2c(Nc3nc(N[C@@H]4CCCC[C@@H]4N)c(F)c4cn[nH]c(=O)c34)cc(F)cc12 [Example 1.1, 7-((1R,2S)-2-Amino-cyclohexylamino)-8-fluoro-5-(5-fluoro-3-methyl-1H-indol-7-ylamino)-3H-pyrido[3,4-d]pyridazin-4-one] | 2 nM
Cc1c[nH]c2c(Nc3nc(N[C@@H]4CCCC[C@@H]4N)cc4cn[nH]c(=O)c34)cccc12 [Example 2.1, 7-((1R,2S)-2-Amino-cyclohexylamino)-5-(3-methyl-1H-indol-7-ylamino)-3H-pyrido[3,4-d]pyridazin-4-one] | 1.6 nM
N[C@H]1CCCC[C@H]1Nc1cc2cn[nH]c(=O)c2c(Nc2ccc3nccnc3c2)n1 [Example 2.18, 7-((1R,2S)-2-Amino-cyclohexylamino)-5-(quinoxalin-6-ylamino)-3H-pyrido[3,4-d]pyridazin-4-one] | 26 nM
N[C@H]1CCCC[C@H]1Nc1cc2cn[nH]c(=O)c2c(Nc2cccc3cc[nH]c23)n1 [Example 2.12, 7-((1R,2S)-2-Amino-cyclohexylamino)-5-(1H-indol-7-ylamino)-3H-pyrido[3,4-d]pyridazin-4-one] | 7 nM
N[C@H]1CCCC[C@H]1Nc1cc2cn[nH]c(=O)c2c(Nc2ccc3ncccc3c2)n1 [Example 2.5, 7-((1R,2S)-2-Amino-cyclohexylamino)-5-(quinolin-6-ylamino)-3H-pyrido[3,4-d]pyridazin-4-one] | 1.6 nM

Second part, the molecule after the results:

IC50 | SMILES
2.7 nM | N[C@H]1CCCC[C@H]1Nc1cc2cn[nH]c(=O)c2c(Nc2cccc3[nH]ccc23)n1 [Example 2.9, 7-((1R,2S)-2-Amino-cyclohexylamino)-5-(1H-indol-4-ylamino)-3H-pyrido[3,4-d]pyridazin-4-one]
0.6 nM | Cn1ccc2c(Nc3nc(N[C@@H]4CCCC[C@@H]4N)cc4cn[nH]c(=O)c34)cccc21 [Example 2.2, 7-((1R,2S)-2-Amino-cyclohexylamino)-5-(1-methyl-1H-indol-4-ylamino)-3H-pyrido[3,4-d]pyridazin-4-one]
9 nM | N[C@H]1CCCC[C@H]1Nc1cc2cn[nH]c(=O)c2c(Nc2cccc3ncccc23)n1 [Example 2.16, 7-((1R,2S)-2-Amino-cyclohexylamino)-5-(quinolin-5-ylamino)-3H-pyrido[3,4-d]pyridazin-4-one]
2 nM | N[C@H]1CCCC[C@H]1Nc1cc2cn[nH]c(=O)c2c(Nc2cccc3occc23)n1 [Example 2.6, 7-((1R,2S)-2-Amino-cyclohexylamino)-5-(benzofuran-4-ylamino)-3H-pyrido[3,4-d]pyridazin-4-one]
32 nM | N[C@H]1COCC[C@H]1Nc1cc2cn[nH]c(=O)c2c(Nc2cccc3cc[nH]c23)n1 [Example 3.4, 7-((3R,4R)-3-Amino-tetrahydro-pyran-4-ylamino)-5-(1H-indol-7-ylamino)-3H-pyrido[3,4-d]pyridazin-4-one]
1.8 nM | N[C@H]1COCC[C@H]1Nc1cc2cn[nH]c(=O)c2c(Nc2cccc3sccc23)n1 [Example 3.2, 7-((3R,4R)-3-Amino-tetrahydro-pyran-4-ylamino)-5-(benzo[b]thiophen-4-ylamino)-3H-pyrido[3,4-d]pyridazin-4-one]
9 nM | Cc1c[nH]c2c(Nc3nc(N[C@@H]4CCOC[C@@H]4N)cc4cn[nH]c(=O)c34)cccc12 [Example 3.1, 7-((3R,4R)-3-Amino-tetrahydro-pyran-4-ylamino)-5-(3-methyl-1H-indol-7-ylamino)-3H-pyrido[3,4-d]pyridazin-4-one]
2.1 nM | N[C@H]1CCCC[C@H]1Nc1cc2cn[nH]c(=O)c2c(Nc2cccc3sccc23)n1 [Example 2.7, 7-((1R,2S)-2-Amino-cyclohexylamino)-5-(benzo[b]thiophen-4-ylamino)-3H-pyrido[3,4-d]pyridazin-4-one]
